Assay results reported in US20250230171A1 (MOMA Therapeutics, Inc., priority 2023, published 2025).

Experiments:
DLD1 WT cells = experiment: 7-day cell viability assay (CellTiter-Glo), DLD1 parental (WT); type: cell-based, human; details: Homo sapiens, DLD-1, 168 h, 7-day CellTiter-Glo, n=2
DLD1 BRCA2 (−/−) cells = experiment: 7-day cell viability assay (CellTiter-Glo), DLD1 BRCA2 (−/−); type: cell-based, human; details: Homo sapiens, DLD-1, 168 h, 7-day CellTiter-Glo, n=2, read-out: Viability IC50 (uM) DLD1 BRCA2 null
In short: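 7-day growth assay in DLD1 cells with or without BRCA2; seeding densities chosen to keep log-linear growth. Compound: 10 uM top, 3-fold, 9 points. Endpoint: CTG ATP luminescence at RT.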

Row | IC50 (DLD1 BRCA2 (−/−) cells) [µM] | SMILES | IC50 (DLD1 WT cells) [µM]
1 | 0.001 to 0.1 | COc1cnc(Cl)cc1-c1cc(C)ncc1C(=O)Nc1nc2c(s1)CN(C(=O)c1nc(OC)c(C(F)(F)F)cc1C)C2 [Example 987, 2′-chloro-5′-methoxy-N-(5-(6-methoxy-3-methyl-5-(trifluoromethyl)picolinoyl)-5,6-dihydro-4H-pyrrolo[3,4-d]thiazol-2-yl)-6-methyl-[4,4′-bipyridine]-3-carboxamide] | ≥ 10
2 | 0.001 to 0.1 | COc1cnc(Cl)cc1-c1cc(C)ncc1C(=O)Nc1nc2c(s1)CN(C(=O)c1cc(C)c(C(F)(F)F)nc1OC)C2 [Example 989, 2′-chloro-5′-methoxy-N-(5-(2-methoxy-5-methyl-6-(trifluoromethyl)nicotinoyl)-5,6-dihydro-4H-pyrrolo[3,4-d]thiazol-2-yl)-6-methyl-[4,4′-bipyridine]-3-carboxamide] | ≥ 10
3 | 0.001 to 0.1 | COc1cnc(Cl)cc1-c1cc(C)ncc1C(=O)Nc1nc2c(s1)CN(C(=O)c1cnc(OC(F)F)c(C)n1)C2 [Example 990, 2′-chloro-N-(5-(5-(difluoromethoxy)-6-methylpyrazine-2-carbonyl)-5,6-dihydro-4H-pyrrolo[3,4-d]thiazol-2-yl)-5′-methoxy-6-methyl-[4,4′-bipyridine]-3-carboxamide] | ≥ 10
4 | 0.001 to 0.1 | COc1ncc(C(F)(F)F)c(C(=O)N2Cc3nc(NC(=O)c4cnc(C)cc4-c4cc(Cl)ncc4OC)sc3C2)n1 [Example 994, 2′-chloro-5′-methoxy-N-(5-(2-methoxy-5-(trifluoromethyl)pyrimidine-4-carbonyl)-5,6-dihydro-4H-pyrrolo[3,4-d]thiazol-2-yl)-6-methyl-[4,4′-bipyridine]-3-carboxamide] | ≥ 10
5 | 0.001 to 0.1 | COc1cnc(Cl)cc1-c1cc(C)ncc1C(=O)Nc1nc2c(s1)CN(C(=O)c1ccc(OC(F)(F)F)c(C)n1)C2 [Example 995, 2′-chloro-5′-methoxy-6-methyl-N-(5-(6-methyl-5-(trifluoromethoxy)picolinoyl)-5,6-dihydro-4H-pyrrolo[3,4-d]thiazol-2-yl)-[4,4′-bipyridine]-3-carboxamide] | ≥ 10
6 | 0.001 to 0.1 | COc1nc(C(F)(F)F)ccc1C(=O)N1Cc2nc(NC(=O)c3cnc(C)cc3-c3cc(Cl)nnc3OC)sc2C1 [Example 996, 4-(6-chloro-3-methoxypyridazin-4-yl)-N-(5-(2-methoxy-6-(trifluoromethyl)nicotinoyl)-5,6-dihydro-4H-pyrrolo[3,4-d]thiazol-2-yl)-6-methylnicotinamide] | ≥ 10
7 | 0.001 to 0.1 | COc1cnc(Cl)cc1-c1cc(C)ncc1C(=O)Nc1nc2c(s1)CN(C(=O)c1ccc(OC(F)(F)F)c(Cl)n1)C2 [Example 997] | ≥ 10
8 | 0.001 to 0.1 | COc1cnc(Cl)cc1-c1cc(C)ncc1C(=O)Nc1nc2c(s1)CN(C(=O)c1nc(C)cc(C(F)(F)F)c1C)C2 [Example 999, 2′-chloro-N-(5-(3,6-dimethyl-4-(trifluoromethyl)picolinoyl)-5,6-dihydro-4H-pyrrolo[3,4-d]thiazol-2-yl)-5′-methoxy-6-methyl-[4,4′-bipyridine]-3-carboxamide] | ≥ 10
9 | 0.001 to 0.1 | COc1nc(C(F)(F)F)ccc1C(=O)N1Cc2nc(NC(=O)c3cnc(C)cc3-c3cc(Cl)cnc3OC)sc2C1 [Example 1003, 5-chloro-2-methoxy-N-(5-(2-methoxy-6-(trifluoromethyl)nicotinoyl)-5,6-dihydro-4H-pyrrolo[3,4-d]thiazol-2-yl)-6′-methyl-[3,4′-bipyridine]-3′-carboxamide] | ≥ 10
10 | 0.001 to 0.1 | COc1cn2cncc2cc1-c1cc(C)ncc1C(=O)Nc1nc2c(s1)CN(C(=O)c1ccc(C(F)(F)F)nc1OC)C2 [Example 1004] | ≥ 10
11 | 0.001 to 0.1 | COc1ccc(C#N)cc1-c1cc(C)ncc1C(=O)Nc1nc2c(s1)CN(C(=O)c1ccc(C(F)(F)F)nc1OC)C2 [Example 1005, 4-(5-cyano-2-methoxyphenyl)-N-(5-(2-methoxy-6-(trifluoromethyl)nicotinoyl)-5,6-dihydro-4H-pyrrolo[3,4-d]thiazol-2-yl)-6-methylnicotinamide] | ≥ 10
12 | 0.001 to 0.1 | COc1cnc(Cl)cc1-c1cc(C)ncc1C(=O)Nc1nc2c(s1)CN(C(=O)c1nc(C)c(C#N)cc1F)C2 [Example 1006, 2′-chloro-N-(5-(5-cyano-3-fluoro-6-methylpicolinoyl)-5,6-dihydro-4H-pyrrolo[3,4-d]thiazol-2-yl)-5′-methoxy-6-methyl-[4,4′-bipyridine]-3-carboxamide] | ≥ 10
13 | 0.001 to 0.1 | COc1cnc(Cl)cc1-c1cc(C)ncc1C(=O)Nc1nc2c(s1)CN(C(=O)c1ncc(OC(F)(F)F)cc1C)C2 [Example 1007, 2′-chloro-5′-methoxy-6-methyl-N-(5-(3-methyl-5-(trifluoromethoxy)picolinoyl)-5,6-dihydro-4H-pyrrolo[3,4-d]thiazol-2-yl)-[4,4′-bipyridine]-3-carboxamide] | ≥ 10
14 | 0.001 to 0.1 | COc1cnc(Cl)cc1-c1cc(C)ncc1C(=O)Nc1nc2c(s1)CN(C(=O)c1ccc(OC(F)F)c(C)n1)C2 [Example 1008, 2′-chloro-N-(5-(5-(difluoromethoxy)-6-methylpicolinoyl)-5,6-dihydro-4H-pyrrolo[3,4-d]thiazol-2-yl)-5′-methoxy-6-methyl-[4,4′-bipyridine]-3-carboxamide] | ≥ 10
15 | 0.001 to 0.1 | COc1cnc(Cl)cc1-c1cc(C)ncc1C(=O)Nc1nc2c(s1)CN(C(=O)c1cnc(OC(F)(F)F)cc1C)C2 [Example 1009, 2′-chloro-5′-methoxy-6-methyl-N-(5-(4-methyl-6-(trifluoromethoxy)nicotinoyl)-5,6-dihydro-4H-pyrrolo[3,4-d]thiazol-2-yl)-[4,4′-bipyridine]-3-carboxamide] | ≥ 10
16 | 0.001 to 0.1 | COc1cc2c(cnn2C)cc1-c1cc(C)ncc1C(=O)Nc1nc2c(s1)CN(C(=O)c1ccc(C(F)(F)F)nc1OC)C2 [Example 1010, 4-(6-methoxy-1-methyl-1H-indazol-S-yl)-N-(5-(2-methoxy-6-(trifluoromethyl)nicotinoyl)-5,6-dihydro-4H-pyrrolo[3,4-d]thiazol-2-yl)-6-methylnicotinamide] | ≥ 10
17 | 0.001 to 0.1 | COc1cnc(Cl)cc1-c1cc(C)ncc1C(=O)Nc1nc2c(s1)CN(C(=O)c1ncc(C)c(C(F)(F)F)c1C)C2 [Example 1011, 2′-chloro-N-(5-(3,5-dimethyl-4-(trifluoromethyl)picolinoyl)-5,6-dihydro-4H-pyrrolo[3,4-d]thiazol-2-yl)-5′-methoxy-6-methyl-[4,4′-bipyridine]-3-carboxamide] | ≥ 10
18 | 0.001 to 0.1 | COc1cnc(Cl)cc1-c1cc(C)ncc1C(=O)Nc1nc2c(s1)CN(C(=O)c1nc(C(F)(F)F)c(C)cc1C)C2 [Example 1012, 2′-chloro-N-(5-(3,5-dimethyl-6-(trifluoromethyl)picolinoyl)-5,6-dihydro-4H-pyrrolo[3,4-d]thiazol-2-yl)-5′-methoxy-6-methyl-[4,4′-bipyridine]-3-carboxamide] | ≥ 10
19 | 0.001 to 0.1 | COc1cccc(F)c1-c1cc(C)ncc1C(=O)Nc1nc2c(s1)CN(C(=O)c1ccc(C(F)(F)F)nc1OC)C2 [Example 1013, 4-(2-fluoro-6-methoxyphenyl)-N-(5-(2-methoxy-6-(trifluoromethyl)nicotinoyl)-5,6-dihydro-4H-pyrrolo[3,4-d]thiazol-2-yl)-6-methylnicotinamide] | ≥ 10
20 | 0.001 to 0.1 | COc1cnc(Cl)cc1-c1cc(C)ncc1C(=O)Nc1nc2c(s1)CN(C(=O)c1nc(C)c(C(F)(F)F)cc1F)C2 [Example 1014, 2′-chloro-N-(5-(3-fluoro-6-methyl-5-(trifluoromethyl)picolinoyl)-5,6-dihydro-4H-pyrrolo[3,4-d]thiazol-2-yl)-5′-methoxy-6-methyl-[4,4′-bipyridine]-3-carboxamide] | ≥ 10
21 | 0.001 to 0.1 | COc1cnc(Cl)cc1-c1cc(C)ncc1C(=O)Nc1nc2c(s1)CN(C(=O)c1ccc(C#N)c(C(F)F)n1)C2 [Example 1015, 2′-chloro-N-(5-(5-cyano-6-(difluoromethyl)picolinoyl)-5,6-dibydro-4H-pyrrolo[3,4-d]thiazol-2-yl)-5′-methoxy-6-methyl-[4,4′-bipyridine]-3-carboxamide] | ≥ 10
22 | 0.001 to 0.1 | COc1cnc(C(F)F)cc1-c1cc(C)ncc1C(=O)Nc1nc2c(s1)CN(C(=O)c1ccc(C(F)(F)F)nc1OC)C2 [Example 1016, 2′-(difluoromethyl)-5′-methoxy-N-(5-(2-methoxy-6-(trifluoromethyl)nicotinoyl)-5,6-dihydro-4H-pyrrolo[3,4-d]thiazol-2-yl)-6-methyl-[4,4′-bipyridine]-3-carboxamide] | ≥ 10
23 | 0.001 to 0.1 | COc1cnc(Cl)cc1-c1cc(C)ncc1C(=O)Nc1nc2c(s1)CN(C(=O)c1ccc(OC(F)(F)F)nc1C)C2 [Example 1018, 2′-chloro-5′-methoxy-6-methyl-N-(5-(2-methyl-6-(trifluoromethoxy)nicotinoyl)-5,6-dihydro-4H-pyrrolo[3,4-d]thiazol-2-yl)-[4,4′-bipyridine]-3-carboxamide] | ≥ 10
24 | 0.001 to 0.1 | COc1cnc(Cl)cc1-c1cc(C)ncc1C(=O)Nc1nc2c(s1)CN(C(=O)c1c(C)cc(C(F)(F)F)nc1OC)C2 [Example 1019, 2′-chloro-5′-methoxy-N-(5-(2-methoxy-4-methyl-6-(trifluoromethyl)nicotinoyl)-5,6-dihydro-4H-pyrrolo[3,4-d]thiazol-2-yl)-6-methyl-[4,4′-bipyridine]-3-carboxamide] | ≥ 10
25 | 0.001 to 0.1 | COc1cnc(Cl)cc1-c1cc(C)ncc1C(=O)Nc1nc2c(s1)CN(C(=O)c1nc(C)c(C(F)F)c(C)c1Cl)C2 [Example 1020, 2′-chloro-N-(5-(3-chloro-5-(difluoromethyl)-4,6-dimethylpicolinoyl)-5,6-dihydro-4H-pyrrolo[3,4-d]thiazol-2-yl)-5′-methoxy-6-methyl-[4,4′-bipyridine]-3-carboxamide] | ≥ 10
